This is an account of results in article PMC2717937 (Journal of Experimental & Clinical Cancer Research : CR, 2009).

For data set [1] the following is noted: imatinib 50 mg/kg oral, vehicle 30 min before.
The conditions of data set [2]: vehicle 30 min before, listed as Imatinib alone.
Data set [3] is described as follows: in vivo. To be noted: Balb/C, mouse, brain, po, 50 mg/kg.
The conditions of data set [4]: imatinib 50 mg/kg oral, vehicle 30 min before. The source holds these as a separate data set.
Data set [5] is described as follows: in vivo. To be noted: Balb/C, mouse, plasma, po, 50 mg/kg.
The nature of data set [6]: in vivo. The settings on record: Balb/C, mouse, liver, po, 50 mg/kg.
The conditions of data set [7]: oral; cited from earlier work.
The subject of a further data set is drug efflux. Also noted: method as in PMID 11212278. The settings on record: cited from earlier work.
Data set [8] relates to ABCB1 in CD56+ lymphocytes. The settings on record: healthy volunteers, tariquidar 2 mg/kg i.v. or ≥ 200 mg orally; cited from earlier work.
For data set [9] the following is noted: elacridar with imatinib 12.5 mg/kg vs imatinib alone; cited from earlier work.
The mark [10] stands for this setting: listed as imatinib plus vehicle.

For orientation: Tmax means the time from dosing to the highest level. One may read the AUC(0-t) as exposure summed from dosing to a finite time, without extrapolation to infinity. A lower AUC(0-t) goes with low exposure. For orientation: Cmax means the highest concentration seen after dosing.

Molecules are shown by their SMILES. Structures can show the parent of a compound that is named as a salt. Where two headings read alike, the source gives them in different places.

Turning to `Cc1ccc(NC(=O)c2ccc(CN3CCN(C)CC3)cc2)cc1Nc1nccc(-c2cccnc2)n1` [Imatinib, Imatinib mesylate], in [1], the “Brain AUC0–4” value worked out at 574.23 ng·h/g. Also, the “Brain Cmax (corrected for brain vascular space)” value in data set [1] (listed as Imatinib alone) turned out to be 194.7 ng/g; in data set [1] (setting [10]) it was 195 ng/g. Moreover, the “Plasma Cmax” value in [2] (imatinib 50 mg/kg oral gavage, mean, n = 3 per time point) was 5,710.5 ng/mL. For the same compound, the “Plasma AUC0–24” value in data set [2] (imatinib 50 mg/kg oral) is 12,167.5 hr*ng/mL. Moreover, the figures for the Tmax in the data set “in vivo [3]”, in “in vivo [5]” and in the data set “in vivo [6]” were 2 h, 10.2 min and 15 min, respectively. In addition, the “Liver AUC0–24” value in data set [4] was 68,330.8 hr*ng/g. In data set [4], the “Liver AUC0–24 (text)” value is listed as 68,331 hr*ng/mL. The “Liver Cmax” value in [4] (listed as Imatinib alone) is 26,279.7 ng/g; in data set [4] (setting [10]) it was 26,280 ng/g. This compound displayed an AUC(0-t) in “in vivo [5]” (Plasma AUC0–24, imatinib 50 mg/kg oral, vehicle 30 min before) of 12200 ng·h/mL. In the data set “in vivo [5]” (Plasma Cmax, imatinib 50 mg/kg oral gavage, vehicle 30 min before, mean, n = 3 per time point), this compound displayed a Cmax of 5710 ng/mL. Moreover, in data set [7], the Bioavailability result was “approximately 98%”.

For `COc1cc2c(cc1OC)CN(CCc1ccc(NC(=O)c3cc(OC)c(OC)cc3NC(=O)c3cnc4ccccc4c3)cc1)CC2` [Tariquidar], the “Persistence of inhibitory effect on drug efflux in vitro” value in the data set on drug efflux is given as “persists for over two hours”. Besides, in data set [8], the “Duration of 100% inhibition of ABCB1 in CD56+ lymphocytes” value is listed as “over 24 hours” and the “Inhibition of ABCB1 in CD56+ lymphocytes” value was 100%.

Turning to `COc1cc2c(cc1OC)CN(CCc1ccc(NC(=O)c3cccc4c(=O)c5cccc(OC)c5[nH]c34)cc1)CC2` [elacridar], in [9], the “Fold increase in brain-to-plasma concentration ratio of imatinib” value is given as 9.3 fold.
